Measurements as given in patent publication US12454531B2, “Substituted piperazine derivatives useful as T cell activators” (BRISTOL-MYERS SQUIBB COMPANY, priority 2019, dated 2025).
Where two headings read alike, the source gives them in different places.

What was measured:
Human whole blood pERK = assay: Assay 11: DGK Human Whole Blood pERK Assay; type: cell-based; conditions: anti-CD3 stimulation, pERK positive within CD8 positive population, starting concentration 20 μM, read-out: DGK HWB pERK IC50
Protocol: Assay 11: DGK Human Whole Blood pERK Assay
Human whole blood ERK phosphorylation assay was performed with human venous whole blood obtained from healthy donors (drawn with Heparin as anti-coagulant). Serial dilutions of compounds (11 points, 3-fold) in DMSO were added to 384 well plates at 20 nL/well using an ECHO 550 acoustic dispenser (Labcyte) to achieve final starting concentration of 20 μM in assay. Heparinized human whole blood was added to the compound plate at 9 μL per well and incubated for one hour at 37° C. in a humidified 95%, air/5% CO2 incubator. After one hour of compound incubation, 1 μL of human anti-CD3 antibody (in-house) in the presence of cross-linking antibody goat anti-mouse IgG (4 μg/mL) was added to the well at 1 μg/mL final concentration for stimulation of pathway and additionally incubated for 15 minutes at 37° C. Stimulation was stopped by adding 90 μL Fix/Lyse buffer (BD 558049). Cells were washed and stained with anti-CD8 PE (BD 555635) antibodies for 60 minutes at room temperature, washed again, and permeabilized on ice using Perm III buffer (BD 558050) for 30 minutes. Cells were then stained with an Alexa Fluor® 647 anti-ERK1/2 Phospho (Thr202/Tyr204) Antibody (Bioleged 675504) for 60 minutes at 1:50 dilution. Samples were washed and resuspended in dPBS containing 1% BSA (dPBS, Gibco 14190136; BSA, Sigma-Aldrich A9205). Samples analyzed using the Intellicyt® iQue Screener PLUS. The pERK activation was quantitated by the percentage of pERK positive population within CD8 positive population.

Human whole blood IFN-γ = assay: Assay 10: Human Whole Blood IFN-γ Assay; type: cell-based; conditions: anti-CD3 and anti-CD28 stimulation, 100% = 3 μM reference compound, read-out: INFg Whole Blood Normalized Agonist EC50
Protocol: Assay 10: Human Whole Blood IFN-γ Assay
Human venous whole blood (22.5 μL per well), obtained from healthy donors, was pre-treated with compounds for one hour at 37° C. in a humidified 95% air/5% CO2 incubator. The blood was stimulated with 2.5 μL anti-human CD3 and anti-CD28 mAb at a final concentration of 1 μg/mL each for 24 hours at 37° C. IFN-7 in the supernatants was measured using AlphLISA kit (Cat #AL217).

DGKα [1] = biological target: T1, DGKα (Homo sapiens (Human), UniProt P23743); assay: Assay 2: In Vitro DGK Inhibition Assays, Method B (DGKα ADPGLO); type: biochemical; conditions: 150 μM ATP
Protocol: (§1) Assay 2: In Vitro DGK Inhibition Assays—Method B
(§2) The DGKα and DGKζ reactions were performed using either extruded liposome (DGKα and DGKζ LIPGLO assays) or detergent/lipid micelle substrate (DGKα and DGKζ assays). The reactions were carried out in 50 mM MOPS pH 7.5, 100 mM NaCl, 10 mM MgCl2, 1 μM CaCl2), and 1 mM DTT (assay buffer). The reactions using a detergent/lipid micelle substrate also contained 50 mM octyl B-D-glucopyranoside. The lipid substrate concentrations were 11 mM PS and 1 mM DAG for the detergent/lipid micelle reactions. The lipid substrate concentrations were 2 mM PS, 0.25 mM DAG, and 2.75 mM PC for the extruded liposome reactions (5 mM total lipid). The reactions were carried out in 150 μM ATP. The enzyme concentrations for the DGKα and DGKζ were nM.
(§3) The compound inhibition studies were carried out as follows: 25 nL droplets of each test compound (top concentration 10 mM with 11 point, 3-fold dilution series for each compound) solubilized in DMSO were transferred to wells of a white 1536 well plate (Corning 3725). A 5 mL enzyme/lipid substrate solution at 2× final reaction concentration was prepared by combining 2.5 mL 4× enzyme solution (20 nM DGKα or DGKζ (prepared as described below) in assay buffer) and 2.5 mL of either 4× liposome or 4× detergent/lipid micelle solution (compositions described below) and incubated at room temperature for 10 minutes. Next, 1 μL 2× enzyme/lipid substrate solution was added to wells containing the test compound and reactions were initiated with the addition of 1 μL 300 uM ATP. The reactions were allowed to proceed for 2 hr, after which 2 μL Glo Reagent (Promega V9101) was added and incubated for 40 minutes. Next, 4 μL Kinase Detection Reagent was added and incubated for 30 minutes. Luminescence was recorded using an EnVision microplate reader. […] The compounds were evaluated at 11 concentrations to determine IC50.
The detergent/lipid micelle was prepared by combining 15 g phosphatidylserine (Avanti 840035P) and 1 g diacylglycerol (8008110) and dissolving into 150 mL chloroform in a 2 L round bottom flask. Chloroform was removed under high vacuum by rotary evaporation. The resulting colorless, tacky oil was resuspended in 400 mL 50 mM MOPS pH 7.5, 100 mM NaCl, 20 mM NaF, 10 mM MgCl2, 1 μM CaCl2), 1 mM DTT, and 200 mM octyl glucoside by vigorous mixing. The lipid/detergent solution was split into 5 mL aliquots and stored at −80° C.
(§4) The lipid composition was 5 mol % DAG (Avanti 8008110), 40 mol % PS (Avanti 840035P), and 55 mol % PC (Avanti 850457) at a total lipid concentration of 7-8 mg/mL for the liposome solution. The PC, DAG, and PS were dissolved in chloroform, combined, and dried in vacuo to a thin film. The lipids were hydrated to 20 mM in 50 mM MOPS pH 7.5, 100 mM NaCl, 5 mM MgCl2, and were freeze-thawed five times. The lipid suspension was extruded through a 100 nm polycarbonate filter 10-12 times. Dynamic light scattering was carried out to confirm liposome size (50-60 nm radius). The liposome preparation was stored at 4° C. for as long as four weeks.
Human MA-hDGKα-(S9-S727)-Ct-TVMV-His-pFBgate and full length human DGK-ζ-transcript variant-2-TVMV-His-pFBgate baculovirus samples were generated using the Bac-to-Bac baculovirus expression system (Invitrogen) according to the manufacturer's protocol (note: MA- in name of DGKα reagents indicates two extra amino acids added prior to Ser-9). The DNA used for expression of the DGK-α(9-727) and DGK-C have SEQ ID NOs: 5 and 3, respectively. […]
Target sequence in this assay (P23743 other isoform, or with tags, fused parts or gaps): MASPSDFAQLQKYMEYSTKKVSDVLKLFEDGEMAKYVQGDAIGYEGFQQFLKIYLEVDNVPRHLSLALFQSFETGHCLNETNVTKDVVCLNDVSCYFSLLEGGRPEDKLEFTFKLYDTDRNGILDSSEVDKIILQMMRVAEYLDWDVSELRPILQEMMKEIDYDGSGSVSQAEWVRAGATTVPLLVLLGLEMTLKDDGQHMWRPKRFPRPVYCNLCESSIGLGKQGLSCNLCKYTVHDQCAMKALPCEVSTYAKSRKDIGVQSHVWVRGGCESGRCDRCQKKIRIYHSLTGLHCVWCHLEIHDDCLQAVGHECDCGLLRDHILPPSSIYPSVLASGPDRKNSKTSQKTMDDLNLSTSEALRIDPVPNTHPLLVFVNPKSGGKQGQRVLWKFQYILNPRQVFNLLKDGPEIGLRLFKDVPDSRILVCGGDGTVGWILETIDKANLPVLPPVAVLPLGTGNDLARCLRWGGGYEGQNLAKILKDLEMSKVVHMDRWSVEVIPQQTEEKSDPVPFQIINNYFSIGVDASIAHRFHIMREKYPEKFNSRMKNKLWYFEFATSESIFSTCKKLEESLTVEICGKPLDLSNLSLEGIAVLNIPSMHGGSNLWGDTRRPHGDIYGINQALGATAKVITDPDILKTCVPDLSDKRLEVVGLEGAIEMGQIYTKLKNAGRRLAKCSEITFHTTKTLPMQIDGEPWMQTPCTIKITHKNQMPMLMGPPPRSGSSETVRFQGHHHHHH

DGKα [2] = biological target: T1, DGKα; assay: Assay 1: In Vitro DGK Inhibition Assays, Method A (DGKα LIPGLO, extruded liposome); type: biochemical; conditions: extruded liposome substrate, 150 μM ATP
Protocol: (§5) Assay 1: In Vitro DGK Inhibition Assays—Method A
as §2, with “reactions.” for “reactions (5 mM total lipid).”, “5 nM” for “nM.”
as §3, with “follows: 50” for “follows: 25”, “mL enzyme/substrate” for “mL enzyme/lipid substrate”, “2× enzyme/substrate” for “2× enzyme/lipid substrate”, “for 1” for “for 2”
as §4, with “15.2” for “7-8”, “the 4×” for “the”, “eleven” for “10-12”, “Dynamic light scattering was carried out to confirm liposome size (50-60 nm radius).” left out
(§6) Baculovirus amplification was achieved using infected Sf9 cells at 1:1500 virus/cell ratios, and grown for 65 hours at 27° C. post-transfection.
(§7) The cells were lysed using nitrogen cavitation method with a nitrogen bomb (Parr Instruments), and the lysates were clarified by centrifugation. […] The three steps column chromatography included nickel affinity resin capture (i.e. HisTrap FF crude, GE Healthcare), followed by size exclusion chromatography (i.e. HiLoad 26/600 Superdex 200 prep grade, GE Healthcare for DGK-alpha, and HiPrep 26/600 Sephacryl S 300_HR, GE Healthcare for DGK-zeta). The third step was ion exchange chromatography, and differed for the two isoforms. DGKα was polished using Q-Sepharose anion exchange chromatography (GE Healthcare). DGKζ was polished using SP Sepharose cation exchange chromatography (GE Healthcare). The proteins were delivered at concentrations of ≥2 mg/mL. The formulation buffers were identical for both proteins: 50 mM Hepes, pH 7.2, 500 mM NaCl, 10% v/v glycerol, 1 mM TCEP, and 0.5 mM EDTA.
Target sequence in this assay (P23743 whole entry): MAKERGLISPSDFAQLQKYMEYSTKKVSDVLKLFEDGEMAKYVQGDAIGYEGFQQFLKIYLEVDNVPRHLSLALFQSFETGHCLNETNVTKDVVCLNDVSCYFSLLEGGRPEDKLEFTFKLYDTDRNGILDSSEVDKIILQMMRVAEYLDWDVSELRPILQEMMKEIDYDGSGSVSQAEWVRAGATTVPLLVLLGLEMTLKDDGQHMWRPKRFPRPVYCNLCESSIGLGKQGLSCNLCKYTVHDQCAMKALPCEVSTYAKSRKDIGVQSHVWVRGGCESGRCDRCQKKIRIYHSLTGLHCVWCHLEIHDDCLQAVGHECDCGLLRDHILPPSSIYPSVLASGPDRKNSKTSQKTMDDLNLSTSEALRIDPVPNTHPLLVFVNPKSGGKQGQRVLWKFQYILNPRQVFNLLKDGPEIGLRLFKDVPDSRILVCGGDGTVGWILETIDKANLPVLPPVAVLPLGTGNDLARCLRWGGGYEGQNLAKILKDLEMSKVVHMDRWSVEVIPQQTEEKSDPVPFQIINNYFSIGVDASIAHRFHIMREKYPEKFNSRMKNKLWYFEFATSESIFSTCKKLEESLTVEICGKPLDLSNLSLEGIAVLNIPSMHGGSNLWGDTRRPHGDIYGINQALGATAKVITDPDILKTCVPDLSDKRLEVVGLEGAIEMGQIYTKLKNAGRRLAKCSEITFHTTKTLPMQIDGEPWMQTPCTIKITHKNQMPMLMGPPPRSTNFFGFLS

DGKζ = DGKζ (Homo sapiens (Human), UniProt Q13574); assay: Assay 1 or 2: In Vitro DGK Inhibition Assays (DGKζ LIPGLO, extruded liposome); type: biochemical; conditions: extruded liposome substrate, 150 μM ATP
DGKζ, sequence (Q13574 other isoform, or with tags, fused parts or gaps): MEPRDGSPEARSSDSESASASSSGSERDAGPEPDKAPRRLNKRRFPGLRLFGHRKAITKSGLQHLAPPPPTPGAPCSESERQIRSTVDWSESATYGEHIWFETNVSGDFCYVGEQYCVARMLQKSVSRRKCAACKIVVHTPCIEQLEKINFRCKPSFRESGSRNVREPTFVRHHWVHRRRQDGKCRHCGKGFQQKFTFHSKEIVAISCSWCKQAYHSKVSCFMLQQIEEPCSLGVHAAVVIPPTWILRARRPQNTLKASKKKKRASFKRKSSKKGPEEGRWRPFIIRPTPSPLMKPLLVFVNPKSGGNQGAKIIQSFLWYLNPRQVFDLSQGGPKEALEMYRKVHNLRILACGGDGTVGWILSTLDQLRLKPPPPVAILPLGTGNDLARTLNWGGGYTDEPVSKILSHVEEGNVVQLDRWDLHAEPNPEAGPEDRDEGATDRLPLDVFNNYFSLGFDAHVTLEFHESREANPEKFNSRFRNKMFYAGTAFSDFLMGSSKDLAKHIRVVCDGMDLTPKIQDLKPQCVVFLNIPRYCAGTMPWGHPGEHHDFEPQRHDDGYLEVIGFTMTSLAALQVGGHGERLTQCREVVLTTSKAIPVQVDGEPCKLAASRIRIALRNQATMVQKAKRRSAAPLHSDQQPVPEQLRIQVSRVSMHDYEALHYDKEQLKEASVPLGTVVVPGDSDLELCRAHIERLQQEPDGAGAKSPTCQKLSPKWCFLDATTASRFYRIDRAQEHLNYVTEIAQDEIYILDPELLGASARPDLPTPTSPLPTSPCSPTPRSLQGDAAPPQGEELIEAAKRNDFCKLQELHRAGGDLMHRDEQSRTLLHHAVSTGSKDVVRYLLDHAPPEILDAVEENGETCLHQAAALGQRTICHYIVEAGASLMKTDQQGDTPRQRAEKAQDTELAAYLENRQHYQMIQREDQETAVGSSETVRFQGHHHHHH
Protocol: as §5
as §2, with “reactions.” for “reactions (5 mM total lipid).”, “5 nM” for “nM.”
as §3, with “follows: 50” for “follows: 25”, “mL enzyme/substrate” for “mL enzyme/lipid substrate”, “2× enzyme/substrate” for “2× enzyme/lipid substrate”, “for 1” for “for 2”
as §4, with “15.2” for “7-8”, “the 4×” for “the”, “eleven” for “10-12”, “Dynamic light scattering was carried out to confirm liposome size (50-60 nm radius).” left out
as §6, §7, §1
The DGKα and DGKζ reactions were performed using either extruded liposome (DGKα and DGKζ LIPGLO assays) or detergent/lipid micelle substrate (DGKα and DGKζ assays).

IC50 (Human whole blood pERK; Homo sapiens, CD8 positive)	IC50 (DGKα [1])	IC50 (DGKα [2])	IC50 (Human whole blood pERK)	IC50 (DGKζ)	SMILES	EC50 (Human whole blood IFN-γ; 24 hours)	EC50 (Human whole blood IFN-γ; Homo sapiens, 24 h)
80 nM					CC(C)OC(=O)C(c1ccc(F)cc1)N1C[C@H](C)N(c2cc(=O)n(C)c3ccc(C#N)nc23)C[C@H]1C (single isomer, unassigned) [Example 2]	60 nM	
	10 nM				CC[C@H]1CN(C(C(=O)NCCOC)c2ccc(C(F)(F)F)cc2)[C@H](CC)CN1c1nc(=O)n(C)c2ccc(C#N)nc12 (single isomer, unassigned) [Example 55]		
	180 nM				C#CCCC1(CCCOC(=O)C(c2ccc(OC)cc2)N2C[C@H](C)N(c3nc(=O)n(C)c4ccc(C#N)nc34)C[C@H]2C)N=N1 (single isomer, unassigned) [Example 60]		
		279000 nM	20000 nM	9840 nM	C[C@@H]1CN(c2cc(=O)n(C)c3ccc(C#N)nc23)[C@@H](C)CN1C(C(=O)Nc1ccn(C)n1)c1ccc(F)cc1 (stereo partly drawn) [Example 15, 2-((2R,5S)-4-(6-cyano-1-methyl-2-oxo-1,2-dihydro-1,5-naphthyridin-4-yl)-2,5-dimethylpiperazin-1-yl)-2-(4-fluorophenyl)-N-(1-methyl-1H-pyrazol-3-yl)acetamide]		20000 nM
		500 nM	5930 nM	1340 nM	C[C@@H]1CN(c2cc(=O)n(C)c3ccc(C#N)nc23)[C@@H](C)CN1C(C(=O)Nc1ccn(C)n1)c1ccc(F)cc1 (stereo partly drawn) [Example 16, 2-((2R,5S)-4-(6-cyano-1-methyl-2-oxo-1,2-dihydro-1,5-naphthyridin-4-yl)-2,5-dimethylpiperazin-1-yl)-2-(4-fluorophenyl)-N-(1-methyl-1H-pyrazol-3-yl)acetamide]	14400 nM	
13100 nM					CNC(=O)C(c1ccc(F)cc1)N1C[C@H](C)N(c2cc(=O)n(C)c3ccc(C#N)nc23)C[C@H]1C (stereo partly drawn) [Example 26, 2-((2R,5S)-4-(6-cyano-1-methyl-2-oxo-1,2-dihydro-1,5-naphthyridin-4-yl)-2,5-dimethylpiperazin-1-yl)-2-(4-fluorophenyl)-N-methylacetamide]	20000 nM	
410 nM		1140 nM		390 nM	CC(C)N(C)C(=O)CC(c1ccc(F)cc1)N1C[C@H](C)N(c2cc(=O)n(C)c3ccc(C#N)nc23)C[C@H]1C (stereo partly drawn) [Example 41, 3-[(2R,5S)-4-(6-cyano-1-methyl-2-oxo-1,2-dihydro-1,5-naphthyridin-4-yl)-2,5-dimethylpiperazin-1-yl]-3-(4-fluorophenyl)-N-methyl-N-(propan-2-yl)propanamide]		1590 nM
